Experimental data: patent US20240174690A1, “ANNULATED 2-AMINO-3-CYANO THIOPHENES AND DERIVATIVES FOR THE TREATMENT OF CANCER” (BOEHRINGER INGELHEIM INTERNATIONAL GMBH, priority 2021, published 2024)
Converted amounts (≈) assume the structure as drawn. Read-outs that look alike come from different tables or passages of the source.

Assays:
[1] = tested on: KRAS G12C-dependent Ba/F3 cells; test: Ba/F3 proliferation assay, KRAS G12C; type: cell-based; details: Mus musculus, BaF3, 72 h, AlamarBlue
Method in brief: (§1)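 Ba/F3 cells were retrovirally transduced with KRAS G12 mutant vectors, puromycin-selected (1 μg/mL) and grown without IL-3 to make them KRAS-dependent. Compounds were tested in technical duplicates, viability was read by AlamarBlue fluorescence, and values came from curve fitting.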

[2] = Solubility measurement (DMSO solution method), McIlvaine buffer pH 4.5 or 6.8; type: physicochemical; details: aqueous buffer, kinetic from dmso stock, DMSO stock diluted to 250 μM, 24 h shaking at ambient temperature
Method in brief: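 DMSO stock diluted into McIlvaine buffer, pH 4.5 or 6.8, to 250 µM final, shaken 24 h at ambient temperature. Precipitate removed by filtration; filtrate quantified by LC-UV against a fully dissolved reference in acetonitrile/water 1:1.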

[3] = Plasma protein binding assay (PPB), equilibrium dialysis, 10% FCS in PBS; type: in vitro ADME; details: bovine, read-out: PPB 10% FCS (% fu)
Method in brief: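 Equilibrium dialysis (5-10 kg/mol cut-off membrane) of 1-10 μmol/L test compound in 10% FCS/PBS against PBS with or without dextran, 3-5 h at 37° C. Compound in each chamber quantified by LC-MS after protein precipitation; fu calculated from Cserum and Cbuffer.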

SAS cells = test: SAS CTG proliferation assay (120 h) (HNSCC, wt amplified); type: cell-based
Method in brief: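 SAS cells plated at 300 per well in DMEM:F12 with 10% FCS and left overnight, then given compounds acoustically. After 120 h exposure, viability read by CellTiter-Glo as percent of DMSO control. IC50 from four-parameter non-linear regression.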

LOVO cells = test: LOVO CTG proliferation assay (120 h) (CRC, G13D); type: cell-based; details: Homo sapiens, CTG 120 h
Method in brief: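 LOVO cells, 1000 per well in DMEM + 10% FCS, were plated overnight and then dosed with compound from DMSO stock. After 120 h at 37 °C, viability was read by CellTiter-Glo luminescence as a percentage of DMSO controls. IC50 was derived by four-parameter non-linear regression.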

[4] = tested on: KRAS G12V-dependent Ba/F3 cells; test: Ba/F3 proliferation assay, KRAS G12V; type: cell-based; details: Mus musculus, BaF3, 72 h, AlamarBlue;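 also: proliferation IC50 in KRAS G12V-dependent Ba/F3 cells read by AlamarBlue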
Method in brief: as §1

AsPC-1 cells = test: AsPC-1 CTG proliferation assay (120 h) (pancreatic cancer, G12D); type: cell-based; details: Homo sapiens, ASPC1
Method in brief: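 AsPC-1 cells (KRAS G12D), 2000/well in RPMI with 10% FCS, seeded overnight, then treated with compound for 120 h at 37 °C. Viability by CellTiter-Glo luminescence as percent of DMSO control. IC50 from a four-parameter non-linear fit.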

[5] = McIlvaine buffer pH 4.5, read-out: solubility pH 4.5
[6] = McIlvaine buffer pH 6.8, read-out: solubility pH 6.8

Structure (SMILES) | IC50 [1] [nM] | solubility at 24 h [2, 5] [µg/mL] | solubility at 24 h [2, 6] [µg/mL] | fraction unbound [3] | IC50 (SAS cells) [nM] | IC50 (LOVO cells) [nM] | IC50 [4] [nM] | IC50 (AsPC-1 cells) [nM]
C[C@@H]1CN(c2cc(O[C@@H](C)[C@@H]3C[C@@H](F)CN3C)nc(-c3noc4c3CCC[C@@]43CCCc4sc(N)c(C#N)c43)n2)CC2(CC2)N1 [II-17] | 373 | > 147 | 20 (≈ 31.6 µM) | 0.09 | 1030 | 186 | 422 | 251
C[C@H](Oc1cc(N2C[C@H](C)NC3(CC3)C2)nc(-c2noc3c2CCC[C@@]32CCCc3sc(N)c(C#N)c32)n1)[C@@H]1C[C@@H](F)CN1C [II-18] | 429 | > 146 | 8 (≈ 12.6 µM) | 0.11 | 293 | 49 | 438 | 45
C[C@H](Oc1cc(-n2ccc(C(=O)N3CCCC3)n2)nc(-c2noc3c2CCC[C@@]32CCCc3sc(N)c(C#N)c32)n1)[C@@H]1CCCN1C [II-19] | 5 | 89 (≈ 136 µM) | < 1 | 0.04 | 132 | 21 | 3 | 870
CNC(=O)c1ccn(-c2cc(O[C@@H](C)[C@@H]3CCCN3C)nc(-c3noc4c3CCC[C@@]43CCCc4sc(N)c(C#N)c43)n2)n1 [II-20] | 2 | 83 (≈ 135 µM) | 33 (≈ 53.8 µM) | 0.14 | 86 | 158 | 2 | 1030
C[C@H](Oc1cc(-n2ccc(C(N)=O)n2)nc(-c2noc3c2CCC[C@@]32CCCc3sc(N)c(C#N)c32)n1)[C@@H]1CCCN1C [II-21] | 4 | 80 (≈ 133 µM) | 34 (≈ 56.7 µM) | 0.24 | 35 | 29 | 3 | 694
CCOC(=O)c1ccn(-c2cc(O[C@@H](C)[C@@H]3CCCN3C)nc(-c3noc4c3CCC[C@@]43CCCc4sc(N)c(C#N)c43)n2)n1 [II-23] | 8 | 75 (≈ 119 µM) | < 1 | 0.03 | 222 | 124 | 4 | 1640
C[C@H](Oc1cc(-n2ccc(C(=O)O)n2)nc(-c2noc3c2CCC[C@@]32CCCc3sc(N)c(C#N)c32)n1)[C@@H]1CCCN1C [II-24] | 9220 | < 1 | < 1 | 0.48 | 15600 | 7420 | 8110 | > 25000
C[C@H](Oc1cc(-n2ccc(C(=O)NC3COC3)n2)nc(-c2noc3c2CCC[C@@]32CCCc3sc(N)c(C#N)c32)n1)[C@@H]1CCCN1C [II-25] | 3 | 124 (≈ 189 µM) | 73 (≈ 111 µM) | 0.15 | 9 | 63 | 4 | 891
C[C@H](Oc1cc(-n2ccc(C(=O)NC3(C)COC3)n2)nc(-c2noc3c2CCC[C@@]32CCCc3sc(N)c(C#N)c32)n1)[C@@H]1CCCN1C [II-26] | 5 | > 194 | 62 (≈ 92.6 µM) | 0.24 | 5 | 109 | 3 | 1380
C[C@H](Oc1cc(-c2ccn(C)n2)nc(-c2noc3c2CCC[C@@]32CCCc3sc(N)c(C#N)c32)n1)[C@@H]1C[C@@H](F)CN1C [II-27] | 18 | 108 (≈ 183 µM) | < 1 | 0.05 | 151 | 345 | 16 | 4100
C[C@H](Oc1cc(-c2cnn(C)n2)nc(-c2noc3c2CCC[C@@]32CCCc3sc(N)c(C#N)c32)n1)[C@@H]1C[C@@H](F)CN1C [II-28] | 35 | > 133 | < 1 | 0.09 | 203 | 720 | 27 | 5070
C[C@H](Oc1cc(N2CCNC3(COC3)C2)nc(-c2noc3c2CCC[C@@]32CCCc3sc(N)c(C#N)c32)n1)[C@@H]1CCCN1C [II-31] | 69 | > 151 | > 133 | 0.63 | 208 | 182 | 65 | 42
C[C@H](Oc1cc(N2CCNC(C)(C)C2)nc(-c2noc3c2CCC[C@@]32CCCc3sc(N)c(C#N)c32)n1)[C@@H]1CCCN1C [II-32] | 474 | > 121 | 117 (≈ 194 µM) | 0.31 | 8310 | 8320 | 1220 | 385
C[C@H](Oc1cc(N2CC3CCC(C2)N3)nc(-c2noc3c2CCC[C@@]32CCCc3sc(N)c(C#N)c32)n1)[C@@H]1CCCN1C [II-34] | 527 | > 146 | 114 (≈ 190 µM) | 0.37 | 1950 | 2400 | 681 | 1420
C[C@@H]1CN(c2cc(O[C@@H](C)[C@@H]3CCCN3C)nc(-c3noc4c3CCC[C@@]43CCCc4sc(N)c(C#N)c43)n2)C[C@H](C)N1 [II-36] | 330 | > 146 | > 140 | 0.57 | 179 | 16600 | 390 | 990
C[C@H](Oc1cc([C@@H]2CCN(C)C2)nc(-c2noc3c2CCC[C@@]32CCCc3sc(N)c(C#N)c32)n1)[C@@H]1CCCN1C [II-37] | 132 | > 152 | > 152 | 0.71 | 1250 | 692 | 177 | 1450
C[C@H](Oc1cc(N2CCNC3(CCC3)C2)nc(-c2noc3c2CCC[C@@]32CCCc3sc(N)c(C#N)c32)n1)[C@@H]1CCCN1C [II-40] | 381 | > 140 | > 133 | 0.53 | 979 | 508 | 456 | 261
C[C@H](Oc1cc(N2CCNC3(CCCC3)C2)nc(-c2noc3c2CCC[C@@]32CCCc3sc(N)c(C#N)c32)n1)[C@@H]1CCCN1C [II-41] | 490 | > 138 | > 130 | 0.1 | 2110 | 703 | 980 | 269
